From the CheMixHub viscosity set
± gives the uncertainty stated by the source.

Assay: xn = mol fraction of the nth substance listed

CC(=O)[O-].C[N+]1(CC2CO2)CCCC1=O (stereo unspecified) + O
viscosity [mPa·s], 101 kPa
Conditions	293.15 K	298.15 K	303.15 K	308.15 K	313.15 K
x1 = 0.0346	2.26 ± 0.05	1.94 ± 0.04	1.67 ± 0.03	1.46 ± 0.03	1.29 ± 0.03
x1 = 0.0775	4.27 ± 0.09	3.56 ± 0.07	3.01 ± 0.06	2.6 ± 0.05	2.28 ± 0.05
x1 = 0.1028	5.4 ± 0.11	4.45 ± 0.09	3.71 ± 0.08	3.13 ± 0.06	2.67 ± 0.06
x1 = 0.2008	7.75 ± 0.16	6.28 ± 0.13	5.18 ± 0.11	4.33 ± 0.09	3.63 ± 0.07
x1 = 0.3054	8.32 ± 0.17	6.76 ± 0.14	5.57 ± 0.12	4.67 ± 0.1	3.95 ± 0.08
x1 = 0.4045	8.17 ± 0.17	6.7 ± 0.14	5.56 ± 0.12	4.69 ± 0.1	4 ± 0.08
x1 = 0.5113	7.82 ± 0.16	6.47 ± 0.14	5.41 ± 0.11	4.6 ± 0.1	3.94 ± 0.08
x1 = 0.6049	7.47 ± 0.16	6.23 ± 0.13	5.23 ± 0.11	4.47 ± 0.1	3.85 ± 0.08
x1 = 0.7052	7.16 ± 0.15	6.01 ± 0.13	5.1 ± 0.11	4.38 ± 0.09	3.79 ± 0.08
x1 = 0.8048	6.92 ± 0.15	5.83 ± 0.13	4.97 ± 0.11	4.28 ± 0.09	3.72 ± 0.08
x1 = 0.9047	6.73 ± 0.15	5.68 ± 0.13	4.87 ± 0.11	4.21 ± 0.09	3.67 ± 0.08

O.OC[C@H]1O[C@H](O[C@H]2[C@H](O)[C@@H](O)[C@H](O)O[C@@H]2CO)[C@H](O)[C@@H](O)[C@@H]1O + O
viscosity [mPa·s]
Conditions	x1 = 0.000899	x1 = 0.001221	x1 = 0.001607	x1 = 0.001874	x1 = 0.002333	x1 = 0.002646	x1 = 0.006
298.15 K, 101 kPa	0.936 ± 0.02	0.956 ± 0.02	0.974 ± 0.021	0.988 ± 0.021	1.012 ± 0.021	1.026 ± 0.022	–
308.15 K, 101 kPa	0.756 ± 0.017	0.77 ± 0.017	0.785 ± 0.017	0.795 ± 0.017	0.815 ± 0.018	0.825 ± 0.018	–
310 K, 101.3 kPa	–	–	–	–	–	–	1.09 ± 0.22
318.15 K, 101 kPa	0.626 ± 0.014	0.636 ± 0.014	0.649 ± 0.015	0.657 ± 0.015	0.671 ± 0.015	0.681 ± 0.015	–

C[C@H](O)C(=O)O + C[N+](C)(C)CCO.[Cl-]
101 kPa, x2 = 0.3333
Conditions	viscosity [mPa·s]
303.15 K	374.3 ± 14
313.15 K	187 ± 4.7

CCCC[N+](CCCC)(CCCC)CCCC.[Br-] + ClC(Cl)(Cl)Cl
303.15 K, 101 kPa
Conditions	viscosity [mPa·s]
x1 = 0.0245	2.46 ± 0.02
x1 = 0.026	2.59 ± 0.02
x1 = 0.0348	3.22 ± 0.03
x1 = 0.0608	7.11 ± 0.06
x1 = 0.0946	14.33 ± 0.14
x1 = 0.1162	24.57 ± 0.25
x1 = 0.1446	36.49 ± 0.42
x1 = 0.1666	56.17 ± 0.69
x1 = 0.1764	63.7 ± 0.89
x1 = 0.2004	101.7 ± 2.2
x1 = 0.2171	141.8 ± 4.2
x1 = 0.2631	307.1 ± 15
x1 = 0.3449	1248 ± 110

C1CCC(C2CCCCC2)CC1 + C1CC[C@H]2CCCC[C@@H]2C1
viscosity [mPa·s], 102 kPa
Conditions	x2 = 0.1185	x2 = 0.2312	x2 = 0.3405	x2 = 0.4451	x2 = 0.546	x2 = 0.6433	x2 = 0.7374	x2 = 0.828	x2 = 0.9154
293.15 K	3.72 ± 0.03	3.43 ± 0.03	3.17 ± 0.03	2.96 ± 0.03	2.77 ± 0.02	2.6 ± 0.02	2.45 ± 0.02	2.33 ± 0.02	2.21 ± 0.02
303.15 K	2.95 ± 0.03	2.74 ± 0.02	2.56 ± 0.02	2.4 ± 0.02	2.27 ± 0.02	2.15 ± 0.02	2.03 ± 0.02	1.94 ± 0.02	1.85 ± 0.02
313.15 K	2.39 ± 0.02	2.24 ± 0.02	2.11 ± 0.02	1.99 ± 0.02	1.89 ± 0.02	1.8 ± 0.02	1.71 ± 0.02	1.64 ± 0.02	1.57 ± 0.02
323.15 K	1.98 ± 0.02	1.87 ± 0.02	1.77 ± 0.02	1.68 ± 0.02	1.6 ± 0.02	1.52 ± 0.02	1.46 ± 0.02	1.4 ± 0.02	1.34 ± 0.02

Oc1cccc(O)c1O + CC[N+](CC)(CC)CC.[Br-]
101.3 kPa, x2 = 0.333
Conditions	viscosity [mPa·s]
293.15 K	46000 ± 6400
298.15 K	32000 ± 4200
303.15 K	23000 ± 2900
308.15 K	16000 ± 1900
313.15 K	10500 ± 1100
318.15 K	7500 ± 770
323.15 K	5500 ± 530

CCCCOCCOCCOCCCC + CCOC(=O)OCC
viscosity [mPa·s], 101.3 kPa
Conditions	298.15 K	308.15 K	318.15 K
x1 = 0.0131	0.771 ± 0.011	0.675 ± 0.009	0.587 ± 0.008
x1 = 0.0338	0.806 ± 0.011	0.699 ± 0.01	0.603 ± 0.009
x1 = 0.0756	0.864 ± 0.012	0.751 ± 0.01	0.638 ± 0.009
x1 = 0.1533	0.976 ± 0.013	0.842 ± 0.012	0.707 ± 0.01
x1 = 0.2472	1.118 ± 0.015	0.949 ± 0.013	0.792 ± 0.011
x1 = 0.3392	1.245 ± 0.017	1.056 ± 0.015	0.871 ± 0.012
x1 = 0.4137	1.359 ± 0.019	1.14 ± 0.016	0.94 ± 0.013
x1 = 0.425	1.379 ± 0.019	1.153 ± 0.016	0.95 ± 0.014
x1 = 0.4831	1.457 ± 0.02	1.22 ± 0.017	1.002 ± 0.014
x1 = 0.6085	1.63 ± 0.023	1.357 ± 0.02	1.105 ± 0.016
x1 = 0.7927	1.892 ± 0.028	1.556 ± 0.023	1.255 ± 0.019
x1 = 0.8959	2.018 ± 0.03	1.656 ± 0.025	1.328 ± 0.02
x1 = 0.954	2.116 ± 0.032	1.734 ± 0.026	1.383 ± 0.021

O=S(=O)([O-])[O-].O=S(=O)([O-])[O-].O=S(=O)([O-])[O-].[Al+3].[Al+3] + O
viscosity [mPa·s], 101 kPa
Conditions	298.15 K	323.15 K
x1 = 0.0016	1.12 ± 0.03	0.597 ± 0.016
x1 = 0.00272	–	0.734 ± 0.02
x1 = 0.00291	–	0.743 ± 0.02
x1 = 0.0032	1.36 ± 0.04	0.695 ± 0.019
x1 = 0.00384	–	0.839 ± 0.022
x1 = 0.00482	–	0.96 ± 0.025
x1 = 0.0053	1.93 ± 0.05	0.925 ± 0.026
x1 = 0.005932	–	1.074 ± 0.029
x1 = 0.0071	2.44 ± 0.06	1.15 ± 0.03
x1 = 0.007109	–	1.242 ± 0.033
x1 = 0.008241	–	1.431 ± 0.038
x1 = 0.0087	3.17 ± 0.08	1.44 ± 0.04
x1 = 0.009379	–	1.686 ± 0.045
x1 = 0.0105	4.21 ± 0.11	1.82 ± 0.05
x1 = 0.0106	–	1.989 ± 0.053
x1 = 0.01197	–	2.398 ± 0.064
x1 = 0.0123	5.95 ± 0.16	2.41 ± 0.07
x1 = 0.01327	–	2.919 ± 0.078
x1 = 0.0145	8.96 ± 0.24	3.43 ± 0.1
x1 = 0.0147	–	3.571 ± 0.096
x1 = 0.0154	10.5 ± 0.28	3.96 ± 0.12
x1 = 0.01608	–	4.31 ± 0.12
x1 = 0.0161	11.8 ± 0.31	4.33 ± 0.13
x1 = 0.017	14.4 ± 0.38	5.17 ± 0.15
x1 = 0.01732	–	4.975 ± 0.13
x1 = 0.0184	18 ± 0.47	6.12 ± 0.19
x1 = 0.01889	–	6.121 ± 0.16

Fc1c(F)c(F)c(F)c(F)c1F + CS(C)=O
viscosity [mPa·s], 101 kPa
Conditions	x2 = 0.1003	x2 = 0.2029	x2 = 0.2999	x2 = 0.4	x2 = 0.5001	x2 = 0.5999	x2 = 0.7	x2 = 0.8004	x2 = 0.9
293.15 K	0.991 ± 0.01	1.058 ± 0.01	1.143 ± 0.011	1.246 ± 0.012	1.365 ± 0.013	1.509 ± 0.015	1.661 ± 0.016	1.806 ± 0.018	1.974 ± 0.02
303.15 K	0.833 ± 0.008	0.891 ± 0.009	0.961 ± 0.009	1.05 ± 0.01	1.144 ± 0.011	1.267 ± 0.012	1.386 ± 0.014	1.513 ± 0.015	1.641 ± 0.016
313.15 K	0.703 ± 0.007	0.758 ± 0.008	0.822 ± 0.008	0.904 ± 0.009	0.976 ± 0.01	1.071 ± 0.01	1.171 ± 0.011	1.276 ± 0.012	1.385 ± 0.013
323.15 K	0.62 ± 0.006	0.659 ± 0.007	0.713 ± 0.007	0.775 ± 0.008	0.839 ± 0.008	0.918 ± 0.009	0.993 ± 0.01	1.077 ± 0.01	1.167 ± 0.011
